# PubChem BioAssay (NCI)
#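 Tested at 5 concentrations; 48 h exposure; 96-well plates; endpoints linearly interpolated, else capped at highest concentration. At the GI50, growth is halved. The concentration for full growth arrest is given as TGI.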
# Tests used:
# Test in all cases: NCI-60 cell line screen, 48 h
# NCI/ADR-RES ovarian = test system: NCI/ADR-RES ovarian
# OVCAR-3 ovarian = test system: OVCAR-3 ovarian
# SK-MEL-28 melanoma = test system: SK-MEL-28 melanoma
# RPMI-8226 leukemia = test system: RPMI-8226 leukemia
# SF-268 CNS = test system: SF-268 CNS
# MDA-MB-231 breast = test system: MDA-MB-231 breast
# SK-MEL-2 melanoma = test system: SK-MEL-2 melanoma
# TK-10 renal = test system: TK-10 renal
# COLO 205 colon = test system: COLO 205 colon
# 786-0 renal = test system: 786-0 renal
# NCI-H522 lung = test system: NCI-H522 lung
# SR leukemia = test system: SR leukemia
# SN12C renal = test system: SN12C renal
# SNB-19 CNS = test system: SNB-19 CNS
# SF-539 CNS = test system: SF-539 CNS
# DU-145 prostate = test system: DU-145 prostate
# UACC-257 melanoma = test system: UACC-257 melanoma
# U251 CNS = test system: U251 CNS
# ACHN renal = test system: ACHN renal
# HCT-15 colon = test system: HCT-15 colon
# IGROV1 ovarian = test system: IGROV1 ovarian
# HCC-2998 colon = test system: HCC-2998 colon
# M14 melanoma = test system: M14 melanoma
# T-47D breast = test system: T-47D breast
# OVCAR-5 ovarian = test system: OVCAR-5 ovarian
# MOLT-4 leukemia = test system: MOLT-4 leukemia
# OVCAR-4 ovarian = test system: OVCAR-4 ovarian
# HCT-116 colon = test system: HCT-116 colon
# MCF7 breast = test system: MCF7 breast
# UACC-62 melanoma = test system: UACC-62 melanoma
# NCI-H226 lung = test system: NCI-H226 lung
# KM12 colon = test system: KM12 colon
# NCI-H460 lung = test system: NCI-H460 lung
# SK-OV-3 ovarian = test system: SK-OV-3 ovarian
# CAKI-1 renal = test system: CAKI-1 renal
# LOX IMVI melanoma = test system: LOX IMVI melanoma
# EKVX NSCLC = test system: EKVX NSCLC
# MDA-MB-435 = test system: MDA-MB-435
# HOP-92 NSCLC = test system: HOP-92 NSCLC
# SK-MEL-5 melanoma = test system: SK-MEL-5 melanoma
# RXF 393 renal = test system: RXF 393 renal
# HOP-62 NSCLC = test system: HOP-62 NSCLC
# SF-295 CNS = test system: SF-295 CNS
# MDA-MB-468 breast = test system: MDA-MB-468 breast
# A498 renal = test system: A498 renal
# CCRF-CEM leukemia = test system: CCRF-CEM leukemia
# HL-60(TB) leukemia = test system: HL-60(TB) leukemia
# HT29 colon = test system: HT29 colon
# OVCAR-8 ovarian = test system: OVCAR-8 ovarian
# SW-620 colon = test system: SW-620 colon
# PC-3 prostate = test system: PC-3 prostate
# NCI-H23 lung = test system: NCI-H23 lung
# HS 578T breast = test system: HS 578T breast
# BT-549 breast = test system: BT-549 breast
# A549 NSCLC = test system: A549 NSCLC
# UO-31 renal = test system: UO-31 renal
# K-562 leukemia = test system: K-562 leukemia
# MALME-3M melanoma = test system: MALME-3M melanoma
structure (smiles),measurement,setting,value
COc1ccc2[nH]cc(-c3nc(N)nnc3-c3cn(C)c4ncc(Br)cc34)c2c1,GI50,NCI/ADR-RES ovarian,1450 nM
same,TGI,NCI/ADR-RES ovarian,11200 nM
same,GI50,OVCAR-3 ovarian,250 nM
same,TGI,OVCAR-3 ovarian,2660 nM
same,GI50,SK-MEL-28 melanoma,966 nM
same,TGI,SK-MEL-28 melanoma,34400 nM
same,GI50,RPMI-8226 leukemia,430 nM
same,TGI,RPMI-8226 leukemia,> 40800 nM
same,GI50,SF-268 CNS,1580 nM
same,TGI,SF-268 CNS,29600 nM
same,GI50,MDA-MB-231 breast,882 nM
same,TGI,MDA-MB-231 breast,48600 nM
same,GI50,SK-MEL-2 melanoma,335 nM
same,TGI,SK-MEL-2 melanoma,15400 nM
same,GI50,TK-10 renal,13100 nM
same,TGI,TK-10 renal,42400 nM
same,GI50,COLO 205 colon,305 nM
same,TGI,COLO 205 colon,1180 nM
same,GI50,786-0 renal,545 nM
same,TGI,786-0 renal,22200 nM
same,GI50,NCI-H522 lung,26.6 nM
same,TGI,NCI-H522 lung,120 nM
same,GI50,SR leukemia,69.3 nM
same,TGI,SR leukemia,> 100000 nM
same,GI50,SN12C renal,494 nM
same,TGI,SN12C renal,26400 nM
same,GI50,SNB-19 CNS,738 nM
same,TGI,SNB-19 CNS,> 100000 nM
same,GI50,SF-539 CNS,255 nM
same,TGI,SF-539 CNS,844 nM
same,GI50,DU-145 prostate,446 nM
same,TGI,DU-145 prostate,> 49700 nM
same,GI50,UACC-257 melanoma,724 nM
same,TGI,UACC-257 melanoma,27800 nM
same,GI50,U251 CNS,491 nM
same,TGI,U251 CNS,38600 nM
same,GI50,ACHN renal,642 nM
same,TGI,ACHN renal,30500 nM
same,GI50,HCT-15 colon,354 nM
same,TGI,HCT-15 colon,21400 nM
same,GI50,IGROV1 ovarian,923 nM
same,TGI,IGROV1 ovarian,25000 nM
same,GI50,HCC-2998 colon,910 nM
same,TGI,HCC-2998 colon,12900 nM
same,GI50,M14 melanoma,292 nM
same,TGI,M14 melanoma,30300 nM
same,GI50,T-47D breast,192 nM
same,TGI,T-47D breast,97200 nM
same,GI50,OVCAR-5 ovarian,568 nM
same,TGI,OVCAR-5 ovarian,> 100000 nM
same,GI50,MOLT-4 leukemia,524 nM
same,TGI,MOLT-4 leukemia,> 76700 nM
same,GI50,OVCAR-4 ovarian,1440 nM
same,TGI,OVCAR-4 ovarian,> 95500 nM
same,GI50,HCT-116 colon,373 nM
same,TGI,HCT-116 colon,13800 nM
same,GI50,MCF7 breast,75.6 nM
same,TGI,MCF7 breast,25300 nM
same,GI50,UACC-62 melanoma,184 nM
same,TGI,UACC-62 melanoma,13300 nM
same,GI50,NCI-H226 lung,676 nM
same,TGI,NCI-H226 lung,9150 nM
same,GI50,KM12 colon,241 nM
same,TGI,KM12 colon,17500 nM
same,GI50,NCI-H460 lung,382 nM
same,TGI,NCI-H460 lung,18000 nM
same,GI50,SK-OV-3 ovarian,482 nM
same,TGI,SK-OV-3 ovarian,48100 nM
same,GI50,CAKI-1 renal,342 nM
same,TGI,CAKI-1 renal,> 50800 nM
same,GI50,LOX IMVI melanoma,484 nM
same,TGI,LOX IMVI melanoma,20100 nM
same,GI50,EKVX NSCLC,864 nM
same,TGI,EKVX NSCLC,> 72800 nM
same,GI50,MDA-MB-435,37.9 nM
same,TGI,MDA-MB-435,205 nM
same,GI50,HOP-92 NSCLC,572 nM
same,TGI,HOP-92 NSCLC,14300 nM
same,GI50,SK-MEL-5 melanoma,233 nM
same,TGI,SK-MEL-5 melanoma,4050 nM
same,GI50,RXF 393 renal,244 nM
same,TGI,RXF 393 renal,3890 nM
same,GI50,HOP-62 NSCLC,547 nM
same,TGI,HOP-62 NSCLC,> 76900 nM
same,GI50,SF-295 CNS,230 nM
same,TGI,SF-295 CNS,10300 nM
same,GI50,MDA-MB-468 breast,30.1 nM
same,TGI,MDA-MB-468 breast,631 nM
same,GI50,A498 renal,12600 nM
same,TGI,A498 renal,48100 nM
same,GI50,CCRF-CEM leukemia,379 nM
same,TGI,CCRF-CEM leukemia,> 84300 nM
same,GI50,HL-60(TB) leukemia,168 nM
same,TGI,HL-60(TB) leukemia,3910 nM
same,GI50,HT29 colon,317 nM
same,TGI,HT29 colon,2550 nM
same,GI50,OVCAR-8 ovarian,851 nM
same,TGI,OVCAR-8 ovarian,22900 nM
same,GI50,SW-620 colon,304 nM
same,TGI,SW-620 colon,> 62400 nM
same,GI50,PC-3 prostate,311 nM
same,TGI,PC-3 prostate,> 60100 nM
same,GI50,NCI-H23 lung,461 nM
same,TGI,NCI-H23 lung,21700 nM
same,GI50,HS 578T breast,319 nM
same,TGI,HS 578T breast,> 78300 nM
same,GI50,BT-549 breast,469 nM
same,TGI,BT-549 breast,7260 nM
same,GI50,A549 NSCLC,769 nM
same,TGI,A549 NSCLC,> 95300 nM
same,GI50,UO-31 renal,717 nM
same,TGI,UO-31 renal,20300 nM
same,GI50,K-562 leukemia,85 nM
same,TGI,K-562 leukemia,> 100000 nM
same,GI50,MALME-3M melanoma,335 nM
same,TGI,MALME-3M melanoma,23000 nM
